Assay results as given in patent US20230279372A1, “METHODS TO CONTROL LIPOKINE CONCENTRATIONS AND USES THEREOF” (Ohio State Innovation Foundation, priority 2020, published 2023).

Tests used:
isolated cardiomyocytes [1] = assay: Seahorse bioanalyzer respiration, wild-type cardiomyocytes; type: cell-based, mice
Description: (§1) Seahorse bioanalyzer. Cardiomyocytes were isolated from 12-24 week old male C57BL/6 male (Charles river) or NOS1^−/− mice (B6; 129S4-Nos1^tm1Pth/J; stock no. 002633; Jackson Labs), chow fed mice. Isolated cardiomyocytes (25,000 per well) were seeded onto laminin-coated Seahorse Plates (Agilent) according to standard protocols. Cells were treated for 1 h with 10 μM 12,13-diHOME or were untreated. The oxygen-consumption rates (OCR; indicating mitochondrial respiration) and extracellular acidification rates (ECAR; indicating glycolysis rate) were monitored in a Seahorse XF24 instrument using the standard protocol of 3-min mix, 2-min wait and 3-min measure. Carbonyl cyanide-p-trifluoromethoxy-phenyl-hydrazon (FCCP; 2 μM) was used to determine the cells maximal respiratory capacity by allowing the electron transport chain to function at its maximal rate (maximal respiratory capacity is derived by subtracting non-mitochondrial respiration from the FCCP rate). Oligomycin (a complex V inhibitor; 2 μM) was used to derive ATP-linked respiration (by subtracting the oligomycin rate from baseline cellular OCR) and proton leak respiration (by subtracting non-mitochondrial respiration from the oligomycin rate). AntimycinA/Roteone (mitochondrial inhibitors; 0.5 μM) was used to determine non-mitochondrial respiration. For mechanistic experiments, cells were treated for 1 h with tetracaine (specific RyR inhibitor; 1 mM), 2,3-butanedione monoxime (BDM; myosin-ATPase inhibitor; […]) and nifedipine (L-type calcium channel inhibitor; 10 μM) were used. Data from wells of the same treatment group were averaged together and analyzed directly using Waves software. For the normalization of respiration to protein content, cells were lysed in RIPA buffer and protein concentration was measured by Bradford assay.

Sham or +BAT mice = assay: Oral gavage of sEH inhibitors in Sham or +BAT mice, in vivo cardiac hemodynamics; conditions: daily oral gavage 0.5 mg/kg for 2 weeks, starting 10 weeks after surgery
Description: Oral gavage of sEH inhibitors. C57BL/6 male mice (Charles River Laboratories) were fed a normal chow diet before and throughout the experiment. Sham and +BAT mice underwent daily oral gavage of sEH inhibitors beginning 10 weeks after the transplant or sham surgery. Mice underwent daily oral gavage with vehicle (Phosphate Buffer Saline [PBS]), or 25 mg/L AUDA in PBS (Cayman Chemicals #10007927), or 50 mg/L t-AUCB in PBS (Cayman Chemicals #16568). Mice were gavaged at 0.5 mg/kg daily for 14-16 days.
Cardiac pressure-volume analysis. Hemodynamic, systolic, and diastolic measurements performed as previously done. Briefly, mice were anesthetized with 1% isoflurane and a 1.4 F Millar catheter was advanced from the carotid artery into the left ventricle. LV pressure-volume dynamics were simultaneously measured over a wide range of heart rates (240-600 bpm). For the TNT experiments, since there were different baseline heart rates, data was normalized to the lowest heart rate. For the acute injection experiments, 12,13-diHOME, 9,10-diHOME, or 9-HODE were infused through the femoral vein (all at 1.5 μg/kg). All pressure-volume loop parameters were calculated using PV loop analysis software module for Lab Chart on ADInstruments. […]

isolated cardiomyocytes [2] = assay: Cardiomyocyte sarcomere function and calcium transient, wild-type cardiomyocytes; type: cell-based, mice; conditions: acute superfusion of 10 μM; vs vehicle
Description: (§2) Measurements of Cardiomyocyte Sarcomere Function and Calcium Transient. Cardiomyocytes were isolated from wild-type C57BL/6 male mice (Charles River) or NOS1^−/− mice (B6; 129S4-Nos1^tm1Plh/J; stock no. 002633; Jackson Labs). Unloaded cardiomyocyte function (sarcomere shortening, kinetics and Ca^2+ transients) were measured as previously performed. In brief, hearts were rapidly excised and cannulated on a constant-flow Langendorff perfusion apparatus, and perfused via the aorta at 37° C. with buffer containing (in mM) 113 NaCl, 4.7 KCl, 0.6 KH2PO4, 0.6 Na2HPO4, 1.2 MgSO4, 12.4 BMD, 12 NaHCO3, 10 KHCO3, 10 HEPES 1M, and 30 Taurine, followed by digestion with liberase enzyme (0.25 mg/ml). After perfusion and digestion ventricles were removed and minced (under sterile conditions), filtered, and equilibrated with 1 mM CaCl2 and FBS at room temperature. Cardiomyocytes were plated on laminin-coated glass slides and placed on the stage of an inverted Olympus IX-71 microscope and superfused (˜1 ml/min at 30° C.) with contractile buffer containing (in mM, pH 7.4) 4 KCl, 131 NaCl, 1 MgCl2, 10 HEPES, 1 CaCl2), and 10 glucose. The cells were visualized using a 40× objective and field-stimulated at 1 Hz for 3 ms using a Myopacer Field-Stimulator system. Sarcomere length, time to contraction/relaxation and contraction/relaxation kinetics will were recorded using the IonOptix video imaging system and a Myocam-S Digital charge-coupled device camera. Changes in intracellular Ca^2+ levels were monitored using (0.5 μM) Fura-2 dual-excitation (360/380 nm) single emission (510 nm) ratiometric imaging. Measurements were taken at baseline and with acute superfusion of 10 μM 12,13-diHOME.

NOS1^−/− mice = assay: Acute injection of 12,13-diHOME, in vivo cardiac hemodynamics in NOS1−/− mice
Source text: (§3) Cardiac pressure-volume analysis. Hemodynamic, systolic, and diastolic measurements performed as previously done. Briefly, mice were anesthetized with 1% isoflurane and a 1.4 F Millar catheter was advanced from the carotid artery into the left ventricle. LV pressure-volume dynamics were simultaneously measured over a wide range of heart rates (240-600 bpm). For the TNT experiments, since there were different baseline heart rates, data was normalized to the lowest heart rate. For the acute injection experiments, 12,13-diHOME, 9,10-diHOME, or 9-HODE were infused through the femoral vein (all at 1.5 μg/kg). All pressure-volume loop parameters were calculated using PV loop analysis software module for Lab Chart on ADInstruments.
Next, the mechanism through which 12,13-diHOME modulates cardiomyocyte function and respiration was investigated. It was shown that nitric oxide (NO) production via NO synthase type 1 (NOS1) is essential for the beneficial effects of exercise to the heart. Since +BAT had similar effects on the heart as exercise, 12,13-diHOME can function through a similar mechanism. Mice deficient in NOS1 (NOS1^−/−) were acutely injected with 12,13-diHOME and in vivo cardiac hemodynamics were measured. […] In addition, 12,13-diHOME had no effect on NOS1^−/− cardiomyocyte peak shortening, Ca^2+ transients, or kinetics (FIGS. 5C-5F).

[3] = system: cardiomyocytes constitutively expressing luciferase; assay: Cardiomyocyte fatty acid uptake (FFA-SS-Luc); type: cell-based, mice; conditions: 10 μM, 10 μM FFA-SS-Luc, after 30 min of incubation; vs vehicle
Description: Cardiomyocyte Fatty Acid Uptake. Cardiomyocytes were isolated from 12-24 week old male LucTg (FVB-Tg(CAG-luc-GFP)L2G85Chco/J; stock no. 008450; Jackson Labs) chow-fed mice. Isolated cardiomyocytes (50,000 cells per well) were seeded onto laminin-coated 12-well plates according to standard protocols in FBS-free media for one hour. After one hour of serum-starve, 10 μm FFA-SS-Luc (Intrace Medical) conjugated probe was added to each well with or without 10 μM 12,13-diHOME directly before imaging using the IVIS Spectrum for […] optical imaging using sequential 3 min exposures for 30 min. Data were analyzed using Living Image Software, and movies were assembled from individual images using ImageJ.
Previous studies have indicated a role for 12,13-diHOME to increase fatty acid uptake. To test whether 12,13-diHOME increases fatty acid uptake in cardiomyocytes, cardiomyocytes constitutively expressing luciferase in vitro were isolated. Cells were treated with FFA-SS Luc, a fatty acid conjugated to luciferin, in the presence of 12,13-diHOME or a vehicle control.

NOS1^−/− cardiomyocyte = assay: Cardiomyocyte sarcomere function and calcium transient, NOS1−/− cardiomyocytes; type: cell-based, mice; conditions: vs PBS
Description: as §2

[4] = system: Wild-type C57BL/6 male mice; assay: Acute injection, in vivo cardiac hemodynamics (pressure-volume analysis) in wild-type mice; conditions: acute injection via femoral vein, 1.5 μg/kg; compared to mice injected with saline
Source text: as §3
Both +BAT and exercise improved cardiac function in mice and increased circulating 12,13-diHOME. To determine if 12,13-diHOME was responsible for the improved cardiac function in +BAT and exercise-trained mice, mice were acutely injected with 12,13-diHOME and in vivo cardiac hemodynamics were measured. Acute treatment of 12,13-diHOME improved systolic function (FIG. 3A; FIG. 8A) and diastolic function (FIG. 3B; FIG. 8B) compared to mice injected with saline. There was no effect of 9,10-diHOME or 9-HODE to alter systolic (FIG. 3A; FIG. 8A) or diastolic function (FIG. 3B; FIG. 8B).

NOS1^−/− cardiomyocytes = assay: Seahorse bioanalyzer respiration, NOS1−/− cardiomyocytes; type: cell-based, mice; conditions: vs vehicle
Description: as §1

[5] = incubation with RyR2 inhibitor tetracaine

## CCCCNc1ccc(C(=O)OCCN(C)C)cc1 [tetracaine, reference compound]
Isolated cardiomyocytes [1]; tetracaine 1 mM for 1 h, independent of 12,13-diHOME
  maximal respiration: decrease

## O=C(O)CCCCCCCCCCCNC(=O)NC12CC3CC(CC(C3)C1)C2 [AUDA]
Sham or +BAT mice
  cardiac function (systolic and diastolic) of +BAT vs Sham mice in the presence of sEH inhibitor: no effect of +BAT to improve cardiac function

## CCCCCC(O)C(O)C/C=C\CCCCCCCC(=O)O (stereo not drawn) [12,13-diHOME]
Isolated cardiomyocytes [2]
  Ca2+ transient amplitude: increase
  maximal velocity of relengthening (−dL/dt): greater
  maximal velocity of shortening (+dL/dt): greater
  peak cardiomyocyte shortening: increased
Isolated cardiomyocytes [1]; 10 μM for 1 h, vs vehicle
  basal oxygen consumption rates (OCR): increased
  maximal respiratory capacity: increased
  non-mitochondrial respiration: increased
Isolated cardiomyocytes [1]; in the presence or absence of RyR2 inhibitor tetracaine
  basal OCR: increased
Isolated cardiomyocytes [1]; [5]
  effect of 12,13-diHOME on maximal respiration: blunted
  effect of 12,13-diHOME on non-mitochondrial respiration: blunted
Isolated cardiomyocytes [1]; with myosin inhibitor BDM
  effect of 12,13-diHOME on basal OCR under myosin inhibition: did not prevent
  effect of 12,13-diHOME on maximal respiration under myosin inhibition: did not prevent
  effect of 12,13-diHOME on non-mitochondrial respiration under myosin inhibition: prevented the increase
NOS1^−/− mice
  diastolic function: no effect
  systolic function: no effect
[3]
  fatty acid uptake: significantly elevated
NOS1^−/− cardiomyocyte
  Ca2+ transients: no effect
  kinetics (maximal velocity of shortening and relengthening): no effect
  peak shortening: no effect
[4]
  diastolic function: improved
  systolic function: improved
NOS1^−/− cardiomyocytes
  basal oxygen consumption rates (OCR): no effect
  maximal respiratory capacity: no effect
  non-mitochondrial respiration: no effect

## CCCCC/C=C\C=C\C(O)CCCCCCCC(=O)O (stereo not drawn) [9-HODE]
[4]
  diastolic function: no effect
  systolic function: no effect

## CCCCC/C=C\CC(O)C(O)CCCCCCCC(=O)O (stereo not drawn) [9,10-diHOME]
[4]
  diastolic function: no effect
  systolic function: no effect
